The target in data set [1] is T1, human M1 muscarinic receptors (Homo sapiens, UniProt P11229).
T1 sequence (P11229 1-460): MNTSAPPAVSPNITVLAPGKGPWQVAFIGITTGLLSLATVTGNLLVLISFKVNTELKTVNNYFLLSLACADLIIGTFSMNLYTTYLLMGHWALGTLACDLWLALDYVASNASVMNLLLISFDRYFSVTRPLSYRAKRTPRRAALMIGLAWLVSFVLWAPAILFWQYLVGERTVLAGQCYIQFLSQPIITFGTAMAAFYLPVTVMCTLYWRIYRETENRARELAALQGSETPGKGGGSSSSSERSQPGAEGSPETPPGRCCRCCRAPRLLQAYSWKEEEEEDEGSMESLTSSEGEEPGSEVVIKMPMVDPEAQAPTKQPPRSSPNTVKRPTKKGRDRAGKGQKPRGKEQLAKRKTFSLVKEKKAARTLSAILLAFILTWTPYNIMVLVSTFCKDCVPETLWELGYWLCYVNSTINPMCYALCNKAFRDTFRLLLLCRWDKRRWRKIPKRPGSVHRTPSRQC
Kind of data set: [3H]-arachidonic acid release in CHO cells expressing M1 receptors, with and without ACh (single modulator concentration, four-parameter curves). The class given is cell-based. The arrangement: expressed in transfected cells; host or cells: CHO cells stably transfected with hM1, obtained from Mark Brann's laboratory (NIH). The conditions noted are these: for 0.1 µM ACh: response with modulator present divided by response to ACh alone / 100 µM ACh: response with modulator present divided by response to ACh alone / No ACh: agonist effect of the allosteric ligand by itself, fraction of the maximal response that could be elicited by ACh: modulator 10 µM, CHO-hM1, mean ± s.e.m.; for No ACh: agonist effect of the allosteric ligand by itself, fraction of the maximal response that could be elicited by ACh: at least 4 determinations. On the procedure:
CHO cells expressing human M1 muscarinic receptors were cultured at 37 °C in a 5% CO2 atmosphere in F12 medium supplemented with 5% fetal bovine serum, 100 units/ml penicillin, and 100 µg/ml streptomycin. These cells were obtained from Mark Brann’s laboratory when they were at NIH and have been in use by us and others for many years.
Measurement of [^3H]AA release was performed as described in Stahl and Ellis[24]. Stably transfected CHO-hM1 cells were seeded on 24-well plates (Greiner Bio-One GmbH, Frickenhausen, Germany) at a density of 5.0 × 10^4 cells/well in 0.5 ml of F-12 medium. Cells were incubated until they attached (approximately 3 h), followed by the addition of [^3H]AA to a final concentration of 0.05 μCi of [^3H]AA per well. The cells were then grown for 16 to 20 h before the assay was performed. [^3H]AA release was measured in Eagle’s basal medium with 20 mM HEPES and 2 mg/ml fatty acid-free bovine serum albumin (EM-BSA). Cells were rinsed twice with EM-BSA, followed by the addition of EM-BSA media containing experimental agents and incubated for 1 h at 37 °C. The assay was terminated by aspiration of the media, and the amount of [^3H]AA released was determined by liquid scintillation counting (Beckman-Coulter LS6500).
Where indicated (Fig. 2), cells were pretreated with POB to reduce the number of available receptors per cell. Stock POB was made up at 10 mM in ethanol and stored at −20C. Each well was pretreated with 0.5 ml of the appropriate concentration in PBS with 1 mM CaCl2 and 1 mM MgCl2 (PBS+ +) for 30 min at 37 °C, followed by 5 washes with PBS+ + . After pretreatment, the normal protocol follows as above.
Tabulated [^3H]AA release data are represented as a fraction of maximal release elicited by ACh or as the fraction of release elicited by the relevant concentration of ACh alone, as indicated. Dose-response curves were normalized to the maximal response of ACh without allosteric ligand. Where indicated, response curves were analyzed using the empirical four-parameter equation: Y=Top+Bottom-Top/1+X/C50^n where X is the concentration of the ligand used, Y is the amount of response, C50 is the concentration of the ligand that produces 50% of the maximal effect, Top and Bottom are the top and bottom plateaus of the curve, and n is related to the Hill slope for the curve. Where indicated, families of response curves were analyzed according to an allosteric operational model[50],[51]: Y=EM[τAA(KB+αβB)+τBBKA]/[τAA(KB+αβB)+τBBKA+AKB+KAKB+KAB+αAB] where EM is the maximal response; A is the concentration of ACh; B is the concentration of the allosteric ligand; τA and τB represent the operational efficacies of A and B, respectively; KA and KB are the equilibrium dissociation constants of A and B; and α and β represent the cooperativities between A and B in terms of binding and activation, respectively. Curve-fitting was carried out with GraphPad Prism, version 5.0 or 6.0 (San Diego CA).

Data set [2] has as its system wild-type (AB) zebrafish (Danio rerio). The experiment in a line: animal or person. The class given is in vivo. The following applies: for MEC: locomotor behaviors. As to the method:
(§1) Larval zebrafish were produced in the University of Toledo zebrafish core facility and housed in an incubator maintained at 28 °C on a 14:10 h cycle. Fish were acclimated to the testing room conditions the evening prior to testing. All testing took place during the 14 h light cycle after the lights had been on for at least 2 h.
The movement of larval zebrafish was monitored with the Noldus behavior recording system (Noldus Information Technology, Leesburg VA) and quantified using EthoVision® XT 15 software (Noldus Information Technology, Leesburg VA). Five-dpf zebrafish larvae were exposed to a range of nonlethal concentrations of compounds in a 24-well plate with appropriate controls. The plate was immediately placed in the incubator for a 30-min exposure period. After 30 min, the plate was transferred to the Noldus system and swimming behavior was recorded in 100% light for 30 min to measure spontaneous swimming behavior. The light was switched off for 10 min (dark period) and then switched on for 10 min (light period), which was then repeated for two additional cycles. In total, the larvae were exposed to three cycles of alternating 10 min dark and light periods (100% darkness-to-100% light). Each drug challenge was conducted on three separate plates with n = 6 larvae/dose/plate.
Absolute turn angle (TA) and angular velocity provided measures of the extent of turning behavior, while the intra-individual variance of turn angle quantified how consistently (low variance) or inconsistently (high variance) fish turned. A lowered intra-individual variance of turning reflected repeatedly performing the same turning behavior, a stereotypy.
All data for exposure and the behavioral end points were analyzed by one-way ANOVA (factor: drug concentration) followed by a Dunnett’s multiple comparisons test for post hoc significance between drug concentration and control group. Statistically significant differences are noted as follows; *p < 0.05; **p < 0.01; ***p < 0.001.

The test system is the same in data set [3]. Kind of data set: Maximum tolerated concentration (MTC) determination in larval zebrafish. In kind it is in vivo. The following applies: for MTC (maximum tolerated concentration): after 24 h exposure, 5 dpf larvae. On the procedure:
as §1
Determination of maximum tolerated concentration (adapted from Berghmans)[52] was completed by placing 5 days post fertilization (dpf) wild-type zebrafish larvae in a 24 well plate at 6 fish per well, and one compound concentration per well. […] Death was determined by the absence of heartbeat. Additional endpoints were used to assess toxicity at non-lethal concentrations such as startle capacity (poke stimulus), abnormalities in swimming behavior (loss of dorsoventral balance), and gross morphological deformities (bent body). […] The MTC determination was used to select three doses of each compound (low, medium, high dose) to be used in behavioral assays.

For data set [4] the test system is unchanged. The class given is in vivo. The conditions noted are these: compound at 10 µM relative to controls; mean ± s.e.m., N = 12.
[5] abbreviates: modulators at 10 µM (amiodarone 30 µM).
Where [6] appears, read: compound at 10 µM relative to controls, mean ± s.e.m., N = 12.

Entries after “also recorded” stand apart in the source; their conditions may differ. Read-outs that look alike come from different tables or passages of the source. Marks after values point to notes of the source that are not given here. A value given as a limit tells only on which side of the number the result lay.

For the compound `O=C1C(=O)N(Cc2ccc(Br)cc2)c2ccccc21` [VU0119498, reference compound], in data set [1], the “0.1 µM ACh: response with modulator present divided by response to ACh alone” value stood at 1.28 ± 0.12; the “100 µM ACh: response with modulator present divided by response to ACh alone” value was 1.03 ± 0.05; the “No ACh: agonist effect of the allosteric ligand by itself, fraction of the maximal response that could be elicited by ACh” value is given as 0.06 ± 0.01.

`CCCCc1oc2ccccc2c1C(=O)c1ccc(O)cc1` [Compound 4, reference compound] yielded an MEC in data set [2] of more than 0.3 µM. Moreover, in data set [3], the “MTC (maximum tolerated concentration)” value was 0.3 µM. Moreover, in data set [1], the “0.1 µM ACh: response with modulator present divided by response to ACh alone” value was determined as 0.62 ± 0.07; the “100 µM ACh: response with modulator present divided by response to ACh alone” value stood at 0.81 ± 0.06; the “No ACh: agonist effect of the allosteric ligand by itself, fraction of the maximal response that could be elicited by ACh” value stood at 0.04 ± 0.01. The “Effect on M1 receptor activity and ACh response, in words” value in data set [1] (setting [5]) was “suppressed the maximal ACh response”.

`CCCCc1oc2ccccc2c1C(=O)c1cc(I)c(OCCN(CC)CC)c(I)c1` [Amiodarone, reference compound]: in data set [2] (setting [6]), the Distance moved was 85.7 ± 10.2% and the Variance turn angle came to 102.2 ± 10.4%. In data set [2], this compound had an MEC of more than 10 µM. Moreover, in data set [3] (24 h exposure), the “Concentration that produced death” value came out at 100 µM. In data set [3], the “MTC (maximum tolerated concentration)” value was found to be 10 µM. Also, the Angular velocity in data set [4] is given as 83.2 ± 12.0%.

Compound `CCCCc1oc2ccccc2c1C(=O)c1cc(I)c(OCC[N+](CC)(CC)CC)c(I)c1` [Compound 2, N-ethyl amiodarone, reference compound] came in with an MEC in data set [2] of more than 1 µM. In addition, in data set [3], the “MTC (maximum tolerated concentration)” value amounted to 1 µM. In data set [1], the “0.1 µM ACh: response with modulator present divided by response to ACh alone” value worked out at 0.13 ± 0.04; the “100 µM ACh: response with modulator present divided by response to ACh alone” value stood at 0.50 ± 0.03; the “No ACh: agonist effect of the allosteric ligand by itself, fraction of the maximal response that could be elicited by ACh” value is on record as 0.04 ± 0.02. The “Effect on M1 receptor activity and ACh response, in words” value in data set [1] (setting [5]) is “NAM of mAChR potency and efficacy”.

As for `COc1ccc(Cn2cc(C(=O)O)c(=O)c3ccccc32)cc1` [BQCA, reference compound], the “Effect on locomotor activity and turning behaviors, in words” value in data set [2] (30 min spontaneous swimming period) is “decreased overall locomotor activity; also recorded: increased angular velocity”. The response vs control in vivo at 10 µM in data set [2] (Danio rerio, read-out: Distance moved) turned out to be 72 ± 10%. In data set [2] (abbreviation not defined in the paper), this compound yielded an MEC of 3 µM. Besides, in data set [2] (setting [6]), the Angular velocity is reported as 141.8 ± 14.9* % and the Variance turn angle was 119.6 ± 7.0* %. Moreover, in data set [1], the “Effect on M1 receptor activity and ACh response, in words” value is “enhanced potency without appreciable effect on maximal response”; the “No ACh: agonist effect of the allosteric ligand by itself, fraction of the maximal response that could be elicited by ACh” value is reported as 0.02 ± 0.00.

With `COc1cccc(CN2C(=O)C(=O)c3ccccc32)c1` [Compound 8j, 1-(3-methoxybenzyl)indoline-2,3-dione], in data set [1], the “0.1 µM ACh: response with modulator present divided by response to ACh alone” value is reported as 1.09 ± 0.31; the “100 µM ACh: response with modulator present divided by response to ACh alone” value came to 0.96 ± 0.01; the “No ACh: agonist effect of the allosteric ligand by itself, fraction of the maximal response that could be elicited by ACh” value worked out at 0.02 ± 0.02.

`CCCCc1oc2ccccc2c1C(=O)c1cc(I)c(O)c(I)c1` [Compound 3, reference compound] registered an MEC in data set [2] of more than 3 µM. In addition, in data set [3], the “MTC (maximum tolerated concentration)” value is recorded as 3 µM. Besides, in data set [1], the “0.1 µM ACh: response with modulator present divided by response to ACh alone” value came to 0.63 ± 0.10; the “100 µM ACh: response with modulator present divided by response to ACh alone” value is 0.90 ± 0.07; the “No ACh: agonist effect of the allosteric ligand by itself, fraction of the maximal response that could be elicited by ACh” value was determined as 0.04 ± 0.01. In addition, the “Effect on M1 receptor activity and ACh response, in words” value in data set [1] (setting [5]) was “suppressed the maximal ACh response”.

In data set [2], VU0238408 [reference compound] came in with a Therap. index of 30 and an MEC of 1 µM. Further, in data set [2] (setting [6]), the Distance moved was 34.6 ± 4.0*** % and the Variance turn angle was 146.6 ± 12.4*** %. Further, the “MTC (maximum tolerated concentration)” value in data set [3] is 30 µM. The Angular velocity in data set [4] turned out to be 180.1 ± 20.3 %.

As to `CC(COc1ccccc1)N(CCCl)Cc1ccccc1` (stereo not drawn) [POB, phenoxybenzamine, reference compound], in data set [1] (pretreatment of cells with 0.3 µM POB), the “Reduction of receptor number” value is 90%.

In data set [2], `CCCCc1oc2ccccc2c1C(=O)c1cc(I)c(OCCNCC)c(I)c1.Cl` [Compound 1, (2-butylbenzofuran-3-yl)(4-(2-(ethylamino)ethoxy)-3,5-diiodophenyl)methanone hydrochloride] yielded a Therap. index of 1 and an MEC of 3 µM. Further, the “MTC (maximum tolerated concentration)” value in data set [3] is listed as 3 µM. Besides, in data set [1], the “0.1 µM ACh: response with modulator present divided by response to ACh alone” value is 1.01 ± 0.11; the “100 µM ACh: response with modulator present divided by response to ACh alone” value is reported as 0.83 ± 0.09; the “No ACh: agonist effect of the allosteric ligand by itself, fraction of the maximal response that could be elicited by ACh” value came to 0.18 ± 0.03. In data set [1] (setting [5]), the “Effect on M1 receptor activity and ACh response, in words” value is reported as “suppressed the maximal ACh response”.

(Values after article PMC11213934, “Allosteric modulators of M1 muscarinic receptors enhance acetylcholine efficacy and decrease locomotor activity and turning behaviors in zebrafish” (Scientific Reports, 2024).)
